According to patent US11712434B2, “Compound having anti-cancer effect, and preparation method therefor and use thereof” (3D MEDICINES (BEIJING) CO., LTD., priority 2016, dated 2023):

Assays:
Assay in all cases: Cell proliferation assay (Alamar Blue)
Format in all cases: cell-based
SW620 = conditions: Homo sapiens, SW-620, 144 h; SW620 tumor cell line; 6 days culture
Description: (§1) 1. Instruments and Materials • Thermo 311 CO2 incubator; Haier biosafety cabinet; Molecular Devices microplate reader; Xiangyi brand L530 desktop low speed centrifuge; Olympus IX51 inverted fluorescence microscope, DMEM, RPMI 1640, MEM, DMEM/F12 1:1 medium, Fetal bovine serum, 0.25% trypsin solution, phosphate buffer (Thermo Fisher Shanghai Co., Ltd.); sigma dimethyl sulfoxide (DMSO), resazurin; 54 commercial tumor cell lines (including 26 liver cancer cell lines). Experimental drugs: compounds 1-12 and active drug Linifanib; chemotherapeutic drug Doxorubicin (HY-15142; Shanghai Qianyuan Biomedical Technology Co., Ltd.).
(§2) 2. Experimental Methods • 2.1 Cultivation of Different Cell Lines • 54 cell lines were cultured in a culture medium containing fetal bovine serum and placed in a 5% CO2 incubator at 37° C. for incubation. The cells were all grown in an adherent state, and the growth was observed under an inverted microscope, and subculture was performed when the cell confluence rate reached 80%-90%. The proportion and quantity of passage were determined by experimental needs. The ratio of subculture of this cell line was generally 1:2^˜1:3. • 2.2 Inhibition Effect on the Proliferation of Different Tumor Cell Lines • Cell test: 54 cell lines in logarithmic growth phase were inoculated in 96-well culture plates at 500^˜1×10^4/well (the optimal seeding density of each cell line was determined in pre-experiment), After incubating at 37° C. for 4 h in a 5% CO2 humidification incubator, added 10 μL of compounds 1-12 or Linifanib to each well, and tested 9 drug concentration gradients for each compound (diluted from the highest concentration of the test by 3.16 times). The solubility of each compound was different at a starting concentration of 100 or 30 μM, respectively. The QC reference compound Doxorubicin was added simultaneously to each cell line test, and the final drug concentrations were 10, 3.16, 1, 0.31, 0.1, 0.03, 0.01, 0.003, and 0.001 μM, respectively. In addition, a positive control group (100% inhibition) and a negative control group (0% inhibition) were set at the same time. The drug group was repeated for 2 wells per concentration, and the positive control group and the negative control group were repeated for 6 wells. After the culture was continued for 6 days in the incubator, AlamarBlue test operation was followed; • AlamarBlue test procedure: Incubated with 10 μL of AlamarBlue reagent per well for 1-4 h, shook for 1-2 min, MD microplate reader EX: 560 nm, EM: 590 nm wavelength to measure fluorescence, recorded the results, calculated the cell inhibition rate of the compound of the invention. Cell inhibition rate (%)=(A0% inhibition−A administration)/(A0% inhibition−A100% inhibition)×100%, and then using the method of nonlinear regression using GraphPad Prism 5.0 or MATILAB software (usually using four parameters) to graph and obtain a drug dose response curve to obtain an IC50 value of the compound of the present invention acting on a cancer cell line.

HT1080 = conditions: Homo sapiens, HT-1080, 144 h; HT1080 tumor cell line; 6 days culture
Description: as §1, §2

NCI-H716 = conditions: Homo sapiens, 144 h; NCI-H716 tumor cell line; 6 days culture
Description: as §1, §2

DLD1 = conditions: Homo sapiens, DLD-1, 144 h; DLD1 tumor cell line; 6 days culture
Description: as §1, §2

Alexander cells = conditions: 144 h; Alexander cells liver cancer cell line; 6 days culture
Description: as §1, §2

JHH1 = conditions: 144 h; JHH1 liver cancer cell line; 6 days culture
Description: as §1, §2

TE-6 = conditions: Homo sapiens, 144 h; TE-6 tumor cell line; 6 days culture
Description: as §1, §2

HUH6 = conditions: Homo sapiens, HuH-6, 144 h; HUH6 liver cancer cell line; 6 days culture
Description: as §1, §2

JHH4 = conditions: JHH-4, 144 h; JHH4 liver cancer cell line; 6 days culture
Description: as §1, §2

SNU761 = conditions: 144 h; SNU761 liver cancer cell line; 6 days culture
Description: as §1, §2

LC-2-ad = conditions: Homo sapiens, 144 h; LC-2-ad tumor cell line; 6 days culture
Description: as §1, §2

JHH5 = conditions: 144 h; JHH5 liver cancer cell line; 6 days culture
Description: as §1, §2

JHH7 = conditions: 144 h; JHH7 liver cancer cell line; 6 days culture
Description: as §1, §2

HUH7 = conditions: Homo sapiens, Huh-7, 144 h; HUH7 liver cancer cell line; 6 days culture
Description: as §1, §2

HuTu80 = conditions: Homo sapiens, 144 h; HuTu80 tumor cell line; 6 days culture
Description: as §1, §2

MDA-MB-435S = conditions: Homo sapiens, 144 h; MDA-MB-435S tumor cell line; 6 days culture
Description: as §1, §2

SNU398 = conditions: Homo sapiens, SNU-398, 144 h; SNU398 liver cancer cell line; 6 days culture
Description: as §1, §2

22RV1 = conditions: Homo sapiens, 144 h; 22RV1 tumor cell line; 6 days culture
Description: as §1, §2

SNU449 = conditions: Homo sapiens, SNU-449, 144 h; SNU449 liver cancer cell line; 6 days culture
Description: as §1, §2

T.T = conditions: Homo sapiens, TT, 144 h; T.T tumor cell line; 6 days culture
Description: as §1, §2

LNCAP-clone-FGC = conditions: Homo sapiens, 144 h; LNCAP-clone-FGC tumor cell line; 6 days culture
Description: as §1, §2

MDA-MB-231 = conditions: Homo sapiens, 144 h; MDA-MB-231 tumor cell line; 6 days culture
Description: as §1, §2

SNU739 = conditions: SNU-739, 144 h; SNU739 liver cancer cell line; 6 days culture
Description: as §1, §2

TE-15 = conditions: Homo sapiens, 144 h; TE-15 tumor cell line; 6 days culture
Description: as §1, §2

SNU886 = conditions: SNU-886, 144 h; SNU886 liver cancer cell line; 6 days culture
Description: as §1, §2

NCI-H661 = conditions: Homo sapiens, 144 h; NCI-H661 tumor cell line; 6 days culture
Description: as §1, §2

SNU182 = conditions: Homo sapiens, SNU-182, 144 h; SNU182 liver cancer cell line; 6 days culture
Description: as §1, §2

SNU423 = conditions: Homo sapiens, SNU-423, 144 h; SNU423 liver cancer cell line; 6 days culture
Description: as §1, §2

Row | IC50 (SW620) | IC50 (HT1080) | IC50 (NCI-H716) | IC50 (DLD1) | IC50 (HUH6) | IC50 (SNU761) | IC50 (HUH7) | IC50 (MDA-MB-435S) | IC50 (SNU398) | IC50 (22RV1) | IC50 (SNU449) | SMILES | IC50 (Alexander cells) | IC50 (JHH1) | IC50 (TE-6) | IC50 (JHH4) | IC50 (LC-2-ad) | IC50 (JHH5) | IC50 (JHH7) | IC50 (HuTu80) | IC50 (T.T) | other results
1 | 6.81 µM | 24.9 µM | 10.8 µM | 29.2 µM | 79 µM | 19.5 µM | 6.33 µM | 18.6 µM | 4.63 µM | 11.5 µM | 25.7 µM | Cc1ccc(F)c(NC(=O)Nc2ccc(-c3cccc4[nH]nc(NC(=O)C[C@H](N)C(=O)N[C@@H](CCC(=O)N[C@@H](CCC(=O)N[C@@H](CCC(=O)N[C@@H](CCC(=O)O)C(=O)O)C(=O)O)C(=O)O)C(=O)O)c34)cc2)c1 [Compound 2] | 7.11 µM | 33.9 µM | 27.6 µM | 36.8 µM | 6.37 µM | 24.7 µM | 4.26 µM | 4.26 µM | 16.9 µM | IC50 (LNCAP-clone-FGC): 26.5 µM; IC50 (MDA-MB-231): 12.4 µM; IC50 (SNU739): 11.3 µM; IC50 (TE-15): 7.29 µM; IC50 (SNU886): 16.9 µM; IC50 (NCI-H661): 36.8 µM; IC50 (SNU182): 46.2 µM; IC50 (SNU423): 33.2 µM
2 | 65.3 µM | > 100 µM | 44.9 µM | > 100 µM | > 100 µM | > 100 µM | 65.4 µM | > 100 µM | > 100 µM | > 100 µM | > 100 µM | Cc1ccc(F)c(NC(=O)Nc2ccc(-c3cccc4[nH]nc(NC(=O)CCCCCCCCCCCNC(=O)C[C@H](N)C(=O)N[C@@H](CCC(=O)N[C@@H](CCC(=O)N[C@@H](CCC(=O)N[C@@H](CCC(=O)O)C(=O)O)C(=O)O)C(=O)O)C(=O)O)c34)cc2)c1 [Compound 8] | > 100 µM | > 100 µM | > 100 µM | > 100 µM | 82.4 µM | > 100 µM | 94.9 µM | 50.6 µM | > 100 µM | IC50 (LNCAP-clone-FGC): > 100 µM; IC50 (MDA-MB-231): > 100 µM; IC50 (SNU739): > 100 µM; IC50 (TE-15): > 100 µM; IC50 (SNU886): > 100 µM; IC50 (NCI-H661): > 100 µM; IC50 (SNU182): > 100 µM; IC50 (SNU423): > 100 µM
3 | 3.46 µM | 7.83 µM | 5.09 µM | 10.5 µM | 43.8 µM | 8.73 µM | 2.24 µM | 9.46 µM | 1.64 µM | 6.37 µM | 13.9 µM | Cc1ccc(F)c(NC(=O)Nc2ccc(-c3cccc4[nH]nc(NC(=O)C[C@H](N)C(=O)O)c34)cc2)c1 [Compound 10] | 3.79 µM | 14.5 µM | 6.98 µM | 14.4 µM | 3.33 µM | 13.4 µM | 1.36 µM | 1.84 µM | 7.38 µM | IC50 (LNCAP-clone-FGC): 14.8 µM; IC50 (MDA-MB-231): 4.63 µM; IC50 (SNU739): 5.29 µM; IC50 (TE-15): 2.58 µM; IC50 (SNU886): 6.19 µM; IC50 (NCI-H661): 18 µM; IC50 (SNU182): 22.1 µM; IC50 (SNU423): 15.3 µM
